Reference: the NIST ThermoML archive (doi:10.1007/s10765-014-1598-0)

Assay: wn = mass fraction of the nth substance listed
Details: Liquid, Parallel plate method

O=P(O)(O)O [phosphoric acid] + O
Details | thermal conductivity [W/m/K]
291.42 K, 5000 kPa, w1 = 0.08 | 0.568
291.7 K, 15000 kPa, w1 = 0.08 | 0.578
292.71 K, 101 kPa, w1 = 0.5 | 0.482
293.15 K, 15000 kPa, w1 = 0.5 | 0.498
293.16 K, 101 kPa, w1 = 0.08 | 0.566
293.26 K, 5000 kPa, w1 = 0.5 | 0.489
294.15 K, 5000 kPa, w1 = 0.155 | 0.545
294.23 K, 15000 kPa, w1 = 0.155 | 0.556
294.32 K, 101 kPa, w1 = 0.155 | 0.529
298.48 K, 101 kPa, w1 = 0.08 | 0.575
300.86 K, 101 kPa, w1 = 0.5 | 0.493
303.03 K, 101 kPa, w1 = 0.155 | 0.545
310.72 K, 5000 kPa, w1 = 0.155 | 0.568
310.89 K, 15000 kPa, w1 = 0.155 | 0.58
312.81 K, 15000 kPa, w1 = 0.5 | 0.525
313.19 K, 5000 kPa, w1 = 0.5 | 0.516
313.91 K, 101 kPa, w1 = 0.08 | 0.597
313.94 K, 101 kPa, w1 = 0.155 | 0.561
314.07 K, 101 kPa, w1 = 0.155 | 0.563
315.13 K, 101 kPa, w1 = 0.5 | 0.514
315.16 K, 5000 kPa, w1 = 0.08 | 0.609
315.18 K, 15000 kPa, w1 = 0.08 | 0.613
320.54 K, 101 kPa, w1 = 0.08 | 0.607
321.54 K, 101 kPa, w1 = 0.155 | 0.571
329.59 K, 101 kPa, w1 = 0.5 | 0.53
330.24 K, 15000 kPa, w1 = 0.5 | 0.545
330.25 K, 101 kPa, w1 = 0.155 | 0.582
330.43 K, 5000 kPa, w1 = 0.5 | 0.54
332.5 K, 15000 kPa, w1 = 0.155 | 0.605
332.65 K, 5000 kPa, w1 = 0.155 | 0.592
334.07 K, 5000 kPa, w1 = 0.08 | 0.633
334.29 K, 15000 kPa, w1 = 0.08 | 0.641
339.46 K, 101 kPa, w1 = 0.5 | 0.538
342.35 K, 101 kPa, w1 = 0.155 | 0.598
342.83 K, 101 kPa, w1 = 0.08 | 0.63
343.21 K, 101 kPa, w1 = 0.155 | 0.599
345.9 K, 101 kPa, w1 = 0.08 | 0.634
350.37 K, 15000 kPa, w1 = 0.08 | 0.654
350.49 K, 5000 kPa, w1 = 0.08 | 0.646
352.63 K, 15000 kPa, w1 = 0.5 | 0.566
352.82 K, 5000 kPa, w1 = 0.5 | 0.569
352.88 K, 101 kPa, w1 = 0.155 | 0.607
353.04 K, 5000 kPa, w1 = 0.155 | 0.615
353.17 K, 15000 kPa, w1 = 0.155 | 0.622
354.94 K, 101 kPa, w1 = 0.5 | 0.55
355.76 K, 101 kPa, w1 = 0.08 | 0.642
360.16 K, 101 kPa, w1 = 0.155 | 0.613
360.21 K, 101 kPa, w1 = 0.155 | 0.614
363.17 K, 5000 kPa, w1 = 0.5 | 0.564
363.2 K, 15000 kPa, w1 = 0.5 | 0.572
364.06 K, 15000 kPa, w1 = 0.155 | 0.632
364.17 K, 5000 kPa, w1 = 0.155 | 0.626
364.98 K, 15000 kPa, w1 = 0.08 | 0.666
365.14 K, 5000 kPa, w1 = 0.08 | 0.667
369.33 K, 101 kPa, w1 = 0.08 | 0.65
370.07 K, 101 kPa, w1 = 0.155 | 0.618
372.13 K, 101 kPa, w1 = 0.5 | 0.56
380.77 K, 15000 kPa, w1 = 0.08 | 0.673
380.93 K, 5000 kPa, w1 = 0.08 | 0.669
383.41 K, 15000 kPa, w1 = 0.5 | 0.58
383.52 K, 5000 kPa, w1 = 0.5 | 0.575
385.14 K, 15000 kPa, w1 = 0.155 | 0.64
385.31 K, 5000 kPa, w1 = 0.155 | 0.636
397.89 K, 5000 kPa, w1 = 0.155 | 0.635
399.66 K, 15000 kPa, w1 = 0.5 | 0.583
399.84 K, 15000 kPa, w1 = 0.08 | 0.677
400.05 K, 5000 kPa, w1 = 0.08 | 0.672
400.07 K, 15000 kPa, w1 = 0.155 | 0.642
400.18 K, 5000 kPa, w1 = 0.5 | 0.58
